Laboratory results published in ChEMBL document CHEMBL1629480, “Molecular docking and QSAR study on steroidal compounds as aromatase inhibitors” (Eur J Med Chem, 2010).

Target: T1, Aromatase (Homo sapiens, UniProt P11511)
T1 sequence (P11511 whole entry): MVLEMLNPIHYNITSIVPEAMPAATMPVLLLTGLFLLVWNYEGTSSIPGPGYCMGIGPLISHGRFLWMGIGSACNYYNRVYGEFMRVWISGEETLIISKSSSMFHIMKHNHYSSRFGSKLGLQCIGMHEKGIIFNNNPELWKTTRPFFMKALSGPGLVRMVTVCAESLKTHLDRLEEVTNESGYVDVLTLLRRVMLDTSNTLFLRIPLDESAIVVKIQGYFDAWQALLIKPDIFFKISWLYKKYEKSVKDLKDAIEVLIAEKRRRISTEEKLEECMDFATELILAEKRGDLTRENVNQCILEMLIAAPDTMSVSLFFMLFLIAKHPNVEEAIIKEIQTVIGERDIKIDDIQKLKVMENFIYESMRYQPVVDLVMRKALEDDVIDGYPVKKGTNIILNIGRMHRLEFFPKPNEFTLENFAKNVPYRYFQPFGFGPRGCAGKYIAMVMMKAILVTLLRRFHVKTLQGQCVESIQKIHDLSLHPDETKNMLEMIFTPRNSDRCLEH
Test: Inhibition of human placental aromatase
Conditions: for pIC50: human

SMILES	pIC50 [uM]	IC50 [nM]
CC(=O)OC1CCC[C@@]2(C)C1=CC[C@@H]1[C@@H]2CC[C@]2(C)C(=O)CC[C@@H]12 (stereo partly drawn)	0	
CC(=O)OC1CCC[C@@]2(CO)C1=CC[C@@H]1[C@@H]2CC[C@]2(C)C(=O)CC[C@@H]12 (stereo partly drawn)	-1.041	11000
CCC[C@H]1CCC[C@@]2(C)C1=CC[C@@H]1[C@@H]2CC[C@]2(C)C(=O)CC[C@@H]12	-0.74	5500
C[C@]12CCC=C[C@@H]1CC[C@@H]1[C@@H]2CC[C@]2(C)C(=O)CC[C@@H]12	0.648	225
C[C@]12CCCC(OC(=O)c3ccccc3)=C1CC[C@@H]1[C@@H]2CC[C@]2(C)C(=O)CC[C@@H]12	0.194	640
C[C@]12CC[C@H]3[C@@H](C[C@H](O)C4=CCCC[C@@]43CO)[C@@H]1CCC2=O	-0.146	1000
C[C@]12CC[C@H]3O[C@H]3[C@@H]1CC[C@@H]1[C@@H]2CC[C@]2(C)[C@@H](O)CC[C@@H]12	-0.813	6500
C[C@]12CCC(=O)C(O)=C1CC[C@@H]1[C@@H]2CC[C@]2(C)OC(=O)CC[C@@H]12	-0.267	1850
CO[C@H]1CCC[C@@]2(CO)C1=CC[C@@H]1[C@@H]2CC[C@]2(C)C(=O)CC[C@@H]12	-2.176	
CCCC(=O)OC1=C2CC[C@@H]3[C@H](CC[C@]4(C)C(=O)CC[C@@H]34)[C@@]2(C)CCC1	-0.176	1500
C[C@]12CC[C@H]3[C@@H](C[C@@H](O)C4=CCCC[C@@]43CO)[C@@H]1CCC2=O	0.027	
C[C@]12CC[C@H]3[C@@H](CCC4=CCCC[C@@]43CO)[C@@H]1CCC2=O	1.31	
C[C@]12CC[C@H]3[C@@H](CC=C4CCCC[C@]43C)[C@@H]1CCC2=O		660
CCCCCC(=O)OC1=C2CC[C@@H]3[C@H](CC[C@]4(C)C(=O)CC[C@@H]34)[C@@]2(C)CCC1	-0.255	1800
CC(=O)OC1=C2CC[C@@H]3[C@H](CC[C@]4(C)C(=O)CC[C@@H]34)[C@@]2(CO)CCC1	-0.556	3600
CC[C@H]1CCC[C@@]2(C)C1=CC[C@@H]1[C@@H]2CC[C@]2(C)C(=O)CC[C@@H]12	-0.653	4500
CC(=O)OC1=C2CC[C@@H]3[C@H](CC[C@]4(C)C(=O)CC[C@@H]34)[C@@]2(C)CCC1	0.18	660
C[C@]12CC[C@@H](O)C(=O)[C@@H]1CC[C@@H]1[C@@H]2CC[C@]2(C)C(=O)CC[C@@H]12	0.174	
C[C@]12CC[C@H]3O[C@H]3[C@@H]1CC[C@@H]1[C@@H]2CC[C@]2(C)C(=O)CC[C@@H]12	0.839	
C[C@]12CCCC(=O)[C@@H]1CC[C@@H]1[C@@H]2CC[C@]2(C)C(=O)CC[C@@H]12	-0.38	2400
C[C@H]1CCC[C@@]2(C)C1=CC[C@@H]1[C@@H]2CC[C@]2(C)C(=O)CC[C@@H]12	-0.255	1800
C[C@]12CCC=C[C@@H]1CC[C@@H]1[C@@H]2CC[C@]2(C)[C@@H](O)CC[C@@H]12	-1.477	30000
C[C@]12CCC(=O)C(O)=C1CC[C@@H]1[C@@H]2CC[C@]2(C)C(=O)CC[C@@H]12 [FORMESTANE]	1.377	
